What is called IC50 is the midpoint of a concentration-inhibition curve. The low end stands for inhibition by little substance, the high end for a need for much substance.

In this assay the target is T1, human BTK (Homo sapiens, UniProt Q06187).
T1 construct: GST (Glutathione-S-Transferase) (cleaved yes); made in house; host or cells: Spodoptera frugiperda Sf9 cells (baculovirus, Bac-to-Bac)
T1 sequence (Q06187 382-659): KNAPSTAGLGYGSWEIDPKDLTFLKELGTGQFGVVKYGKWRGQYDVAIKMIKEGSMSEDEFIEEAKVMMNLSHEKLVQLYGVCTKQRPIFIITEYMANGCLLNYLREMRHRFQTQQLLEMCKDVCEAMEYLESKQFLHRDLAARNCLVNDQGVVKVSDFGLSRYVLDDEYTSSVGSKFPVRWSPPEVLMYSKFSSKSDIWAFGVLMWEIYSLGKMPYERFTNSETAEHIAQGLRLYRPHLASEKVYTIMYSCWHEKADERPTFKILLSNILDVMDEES
The assay can be described thus: BTK inhibition assay: BTK-mediated phosphorylation of FAM-labeled substrate 5-FAM-EEPLYWSFPAKKK-NH2 (Caliper LC-3000). The assay is classed as biochemical. Particulars: pIC50 = -log(IC50), IC50 molar; residues 382 to 659 of human BTK; incubated at room temperature for 60 minutes; larger values represent higher potency. The source says:
The activity of compounds as BTK inhibitors may be determined by a variety of methods, including in vitro and in vivo methods.
This construct engineers an in-frame translational fusion with the Glutathione-S-Transferase (GST) protein for use in affinity purification. The fusion protein derived from this construct contains a protease recognition sequence to liberate the BTK from the GST affinity tag. High-titer baculoviral stocks, generated using the Bac-to-Bac® system (Invitrogen), are used to express the recombinant protein in Spodoptera frugiperda Sf9 cells in 10 L Wave bags. Recombinant proteins are isolated from cellular extracts by passage over Glutathione Sepharose 4B (GE Healthcare) and the BTK moiety is released from the GST affinity tag by treatment with PreScission protease. The BTK recombinant protein is further purified by size exclusion chromatography (HiLoad 16/60 Superdex 200, GE Healthcare) in a buffer containing 20 mM Hepes (pH 7.4), 50 mM NaCl, 10 mM MgCl2, 0.25 mM TCEP and 0.1 mM EDTA. The purity of the fractions is assessed by SDS PAGE and the peak protein fractions are pooled and concentrated using Amicon Ultra-15 Centrifugal Filter Devices (Millipore).
The inhibitory properties of compounds relative to BTK is determined using a black 384-well-plate format in a buffer which contains 50 mM Hepes, 10 mM NaCl, 10 mM MgCl2, 0.2 mM EDTA, 0.01% Brij35®, 1 mM DTT, and 0.1 mg/mL BSA at pH 7.3. The test compound is prepared in DMSO using 2-fold serial dilutions for 11 data points, which are added to the buffer so that each dilution contains 3% DMSO. […] The reaction mixtures are incubated at room temperature for 60 minutes and then quenched by adding 25 μL of 50 mM EDTA. To quantify the fluorescent-labeled substrate and product following reaction, the test plate is loaded on a Caliper LC-3000, which measures percent of conversion by microfluidic-based separation.
The compounds were tested in accordance with the assay described on page 34 of the specification.
As to `Cn1ncc2ccc(-c3cccc4c(N)c(C(N)=O)nnc34)cc21` [Example 1, 4-amino-8-(1-methyl-1H-indazol-6-yl)cinnoline-3-carboxam], the half-maximal inhibitory concentration (IC50) was 1580 nM. This counts as single-digit micromolar.
Compound `Cn1ncc2cc(-c3cccc4c(N)c(C(N)=O)nnc34)ccc21` [Example 2, 4-amino-8-(1-methyl-1H-indazol-5-yl)cinnoline-3-carboxamide] had an IC50 of 158 nM. Compared with the last compound, the IC50 is about 10-fold lower.
With `NC(=O)c1nnc2c(-c3cnc4cc[nH]c4c3)cccc2c1N` [Example 3, 4-amino-8-(1H-pyrrolo[3,2-b]pyridin-6-yl)cinnoline-3-carboxamide], the IC50 was 316 nM.
The same measure for `NC(=O)c1nnc2c(-c3ccc4nc[nH]c4c3)cccc2c1N` [Example 4, 4-amino-8-(1H-benzo[d]imidazol-6-yl)cinnoline-3-carboxamide]: 79.4 nM.
With `Cn1ccc2cc(-c3cccc4c(N)c(C(N)=O)nnc34)ccc21` [Example 5, 4-amino-8-(1-methyl-1H-indol-5-yl)cinnoline-3-carboxamide], it took 3980 nM to reach half-maximal inhibition (IC50).
Turning to `NC(=O)c1nnc2c(-c3cc(F)c4c(c3)CC(=O)N4)cccc2c1N` [Example 6, 4-amino-8-(7-fluoro-2-oxoindolin-5-yl)cinnoline-3-carboxamide], the IC50 was 3160 nM.
Compound `CN1CCc2cc(-c3cccc4c(N)c(C(N)=O)nnc34)ccc21` [Example 7, 4-amino-8-(1-methylindolin-5-yl)cinnoline-3-carboxamide] gave an IC50 of 5010 nM.
In the case of `NC(=O)c1nnc2c(-c3ccc4c(c3)CC(=O)N4)cccc2c1N` [Example 8, 4-amino-8-(2-oxoindolin-5-yl)cinnoline-3-carboxamide], the concentration for half-maximal inhibition (IC50) is 1260 nM.
With `Cn1ccc2ccc(-c3cccc4c(N)c(C(N)=O)nnc34)cc21` [Example 9, 4-amino-8-(1-methyl-1H-indol-6-yl)cinnoline-3-carboxamide], half-maximal inhibition (IC50) was put at 1000 nM.
The same measure for `NC(=O)c1nnc2c(-c3ccc4nccn4c3)cccc2c1N` [Example 10, 4-amino-8-(imidazo[1,2-a]pyridin-6-yl)cinnoline-3-carboxamide]: 631 nM.
The same measure for `Cn1cc2cc(-c3cccc4c(N)c(C(N)=O)nnc34)ccc2n1` [Example 11, 4-amino-8-(2-methyl-2H-indazol-5-yl)cinnoline-3-carboxamide]: 1000 nM; for `Cn1cnc2cc(-c3cccc4c(N)c(C(N)=O)nnc34)ccc21` [Example 12, 4-amino-8-(1-methyl-1H-benzo[d]imidazol-5-yl)cinnoline-3-carboxamide]: 15800 nM; for `Cn1cnc2cc(-c3cccc4c(N)c(C(N)=O)nnc34)cnc21` [Example 13, 4-amino-8-(3-methyl-3H-imidazo[4,5-b]pyridin-6-yl)cinnoline-3-carboxamide]: 39800 nM.
The same measure for `NC(=O)c1nnc2c(-c3ccc4[nH]c(=O)[nH]c4c3)cccc2c1N` [Example 14, 4-amino-8-(2-oxo-2,3-dihydro-1H-benzo[d]imidazol-5-yl)cinnoline-3-carboxamide]: 631 nM.
Compound `Cc1nc2ccc(-c3cccc4c(N)c(C(N)=O)nnc34)cc2[nH]1` [Example 16, 4-amino-8-(2-methyl-1H-benzo[d]imidazol-6-yl)cinnoline-3-carboxamide] had a half-maximal inhibitory concentration (IC50) of 794 nM.
To `CC(C)n1cnc2cc(-c3cccc4c(N)c(C(N)=O)nnc34)ccc21` [Example 17, 4-amino-8-(1-isopropyl-1H-benzo[d]imidazol-5-yl)cinnoline-3-carboxamide] belongs 50100 nM; to `NC(=O)c1nnc2c(-c3ccc4c(c3)ncn4C3CCCCC3)cccc2c1N` [Example 18, 4-amino-8-(1-cyclohexyl-1H-benzo[d]imidazol-5-yl)cinnoline-3-carboxamide], 1260 nM.
To `CC(C)(C)n1cnc2cc(-c3cccc4c(N)c(C(N)=O)nnc34)ccc21` [Example 19, 4-amino-8-(1-tert-butyl-1H-benzo[d]imidazol-5-yl)cinnoline-3-carboxamide] belongs 15800 nM.

These data come from patent US9365566B2 (Takeda Pharmaceutical Company Limited, priority 2012, dated 2016).
